The values below come from article PMC6212638, “In silico identification and biochemical characterization of the human dicarboxylate clamp TPR protein interaction network” (FEBS Open Bio, 2018).

To fix the notation:
T1: FKBP51 (Homo sapiens, UniProt Q13451)
T1 sequence (Q13451 1-457): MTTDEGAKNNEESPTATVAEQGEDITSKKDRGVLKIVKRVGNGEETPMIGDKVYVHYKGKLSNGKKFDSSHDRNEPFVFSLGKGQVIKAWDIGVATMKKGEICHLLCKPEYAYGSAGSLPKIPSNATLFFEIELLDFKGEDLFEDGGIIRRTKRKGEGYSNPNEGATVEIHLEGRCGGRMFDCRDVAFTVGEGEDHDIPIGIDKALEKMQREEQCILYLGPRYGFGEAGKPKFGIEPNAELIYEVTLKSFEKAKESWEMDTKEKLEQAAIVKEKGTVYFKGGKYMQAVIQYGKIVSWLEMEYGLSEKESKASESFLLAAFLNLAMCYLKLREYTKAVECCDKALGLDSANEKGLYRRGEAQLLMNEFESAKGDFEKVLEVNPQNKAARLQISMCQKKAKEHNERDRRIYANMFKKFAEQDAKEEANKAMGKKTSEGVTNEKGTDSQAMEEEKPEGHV

T2: DNAAF2 (human, UniProt Q9NVR5 1-837)
T2 construct: prey of the pull-down; also called dynein axonemal assembly factor 2; source: E. coli BL21, purified as GST fusion (GSTrap), GST removed with PreScission protease
T2 sequence (looked up): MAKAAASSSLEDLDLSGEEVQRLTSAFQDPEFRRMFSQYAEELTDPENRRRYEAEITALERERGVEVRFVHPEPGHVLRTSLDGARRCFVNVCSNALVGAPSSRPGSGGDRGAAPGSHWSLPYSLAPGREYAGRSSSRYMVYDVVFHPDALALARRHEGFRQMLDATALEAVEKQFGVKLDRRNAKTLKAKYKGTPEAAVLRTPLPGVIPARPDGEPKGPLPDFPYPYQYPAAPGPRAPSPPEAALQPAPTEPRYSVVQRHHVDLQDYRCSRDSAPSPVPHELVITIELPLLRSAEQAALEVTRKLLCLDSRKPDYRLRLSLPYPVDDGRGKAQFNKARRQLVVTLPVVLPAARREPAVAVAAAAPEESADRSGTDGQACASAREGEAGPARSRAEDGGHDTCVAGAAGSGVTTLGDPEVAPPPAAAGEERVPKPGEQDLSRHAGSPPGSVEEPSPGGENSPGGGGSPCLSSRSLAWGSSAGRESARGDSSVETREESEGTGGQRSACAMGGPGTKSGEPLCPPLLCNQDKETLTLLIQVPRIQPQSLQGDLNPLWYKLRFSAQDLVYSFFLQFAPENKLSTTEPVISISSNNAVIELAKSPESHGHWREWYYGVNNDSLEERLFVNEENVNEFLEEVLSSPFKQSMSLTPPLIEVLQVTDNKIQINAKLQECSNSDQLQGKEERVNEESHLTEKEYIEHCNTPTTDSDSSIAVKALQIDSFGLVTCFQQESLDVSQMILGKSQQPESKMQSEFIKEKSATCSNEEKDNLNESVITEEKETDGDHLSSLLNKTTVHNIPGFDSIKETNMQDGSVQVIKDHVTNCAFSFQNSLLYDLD

T3: NADSYN1 (human, UniProt Q6IA69 1-706)
T3 construct: prey of the pull-down; also called Nicotinamide adenine dinucleotide synthase 1; source: E. coli BL21, purified as GST fusion (GSTrap), GST removed with PreScission protease
T3 sequence (looked up): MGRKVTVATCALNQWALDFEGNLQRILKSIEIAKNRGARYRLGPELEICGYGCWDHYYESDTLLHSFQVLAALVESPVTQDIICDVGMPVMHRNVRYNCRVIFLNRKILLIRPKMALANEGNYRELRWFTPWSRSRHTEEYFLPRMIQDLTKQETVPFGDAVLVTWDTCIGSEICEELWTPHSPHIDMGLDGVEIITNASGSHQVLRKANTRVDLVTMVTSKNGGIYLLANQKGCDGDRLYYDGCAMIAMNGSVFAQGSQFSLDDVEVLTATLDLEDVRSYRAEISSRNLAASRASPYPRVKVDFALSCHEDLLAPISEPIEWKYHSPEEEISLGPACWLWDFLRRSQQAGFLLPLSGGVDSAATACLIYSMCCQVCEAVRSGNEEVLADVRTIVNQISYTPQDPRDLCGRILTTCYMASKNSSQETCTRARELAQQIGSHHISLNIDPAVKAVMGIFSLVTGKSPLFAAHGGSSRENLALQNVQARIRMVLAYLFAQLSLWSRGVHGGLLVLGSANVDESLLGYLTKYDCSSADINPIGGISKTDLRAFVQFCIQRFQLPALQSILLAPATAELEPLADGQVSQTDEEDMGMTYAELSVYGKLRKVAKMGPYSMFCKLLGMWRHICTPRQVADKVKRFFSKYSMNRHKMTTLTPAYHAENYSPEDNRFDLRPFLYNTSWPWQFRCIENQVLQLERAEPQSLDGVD

B1: GST–FKBP51 (natural protein, human, UniProt Q13451 1-457, looked up)
chain: T1 sequence (Q13451 1-457)
notes: bait of the GST pull-down; source: E. coli BL21, purified (GSTrap 4B, PD-10)
B2: Bcl-G (natural protein, human, UniProt Q9BZR8 1-327, looked up)
chain: MCSTSGCDLEEIPLDDDDLNTIEFKILAYYTRHHVFKSTPALFSPKLLRTRSLSQRGLGNCSANESWTEVSWPCRNSQSSEKAINLGKKKSSWKAFFGVVEKEDSQSTPAKVSAQGQRTLEYQDSHSQQWSRCLSNVEQCLEHEAVDPKVISIANRVAEIVYSWPPPQATQAGGFKSKEIFVTEGLSFQLQGHVPVASSSKKDEEEQILAKIVELLKYSGDQLERKLKKDKALMGHFQDGLSYSVFKTITDQVLMGVDPRGESEVKAQGFKAALVIDVTAKLTAIDNHPMNRVLGFGTKYLKENFSPWIQQHGGWEKILGISHEEVD
notes: Bcl-2-like protein 14 (Bcl-G), human, full-length cDNA clone; also called Bcl-2-like protein 14; source: E. coli BL21, purified as GST fusion (GSTrap), GST removed with PreScission protease
B3: GST–AIP (natural protein, human, UniProt O00170 1-330, looked up)
chain: MADIIARLREDGIQKRVIQEGRGELPDFQDGTKATFHYRTLHSDDEGTVLDDSRARGKPMELIIGKKFKLPVWETIVCTMREGEIAQFLCDIKHVVLYPLVAKSLRNIAVGKDPLEGQRHCCGVAQMREHSSLGHADLDALQQNPQPLIFHMEMLKVESPGTYQQDPWAMTDEEKAKAVPLIHQEGNRLYREGHVKEAAAKYYDAIACLKNLQMKEQPGSPEWIQLDQQITPLLLNYCQCKLVVEEYYEVLDHCSSILNKYDDNVKAYFKRGKAHAAVWNAQEAQADFAKVLELDPALAPVVSRELRALEARIRQKDEEDKARFRGIFSH
notes: as for B1

Peptide text beside a SMILES is read from it.

The subject of data set [1] is HEK293 cells. The note with it: N-terminally fluorescein-labeled peptides, 20 μM, fluorescence imaging. An excerpt:
(§1) P < 0.05 was considered to be statistically significant. Data are presented as mean ± SEM.

In data set [2] the test system is Hsp90–Tom70 interaction. Briefly: Proximity ligation assay (PLA) of Hsp90–Tom70 interaction in HEK293 cells. It is filed as cell-based, human. The note with it: non-fluorescent peptide, n = 3.
Source text: as §1
(§2) In subsequent experiments, non‐fluorescent peptides were used. […] Cell impermeable Hsp90 peptide served as a treatment control.

Data set [3] concerns Tom20–Tom70 interaction. Briefly: Mammalian two-hybrid assay (luciferase) of Tom20–Tom70 interaction in HEK293 cells. It is filed as cell-based, human. As to conditions: peptide 20 μM added 4 h after transfection, 48 h, n = 3.
Source text: (§3) Tom70 sequence was PCR amplified and subcloned into pACT vector of CheckMate™ mammalian two‐hybrid system (Promega, Madison, WI, USA) using SalI/NotI restriction sites, and Hsp90 and Tom20 DNA sequences were PCR amplified and subcloned into pBIND vector using SalI/NotI restriction sites. Tom70‐pACT/Hsp90‐pBIND and Tom70‐pACT/Tom20‐pBIND were co‐transfected with pLuc plasmid in a 1 : 1 : 1 molar ratio into HEK293 cells using Lipofectamine 3000 transfection reagent (Invitrogen, Carlsbad, CA, USA) according to the manufacturer's protocol. Triplicate samples in 96‐well cell culture plates Corning (Tewskbury, MA, USA) were used in each experiment. Hsp90, R9–Hsp90, Tom20 and R9–Tom20 peptides at concentration 20 μM were added 4 h after transfection. HEK293 cells were cultivated for 48 h, washed twice with PBS and lysed with PBS containing 1% Triton X‐100. Luciferase expression was detected using a luciferase assay kit from BioThema (Huddinge, Sweden) on a 96‐well plate reader from Perkin Elmer (Upplands Väsby, Stockholm, Sweden).
as §2

Data set [4] relates to Hsp90–Tom70 interaction. Briefly: Mammalian two-hybrid assay (luciferase) of Hsp90–Tom70 interaction in HEK293 cells. It is filed as cell-based, human. As to conditions: peptide 20 μM added 4 h after transfection, 48 h, n = 3.
Source text: as §3, §2

Data set [5] concerns FKBP51. The note with it: cited from earlier work. The text has this:
Here in this study, we systematically searched the human protein database (https://www.ncbi.nlm.nih.gov/protein/) for the protein products containing Hsp70/Hsp90‐like sequence signatures at their C terminus. Sev ...

The target of data set [6] is T1, FKBP51. Description: Dot-blot competition assay: HRP-conjugated peptide vs unlabeled peptide on immobilized FKBP51. The note with it: HRP-conjugated peptide on immobilized dcTPR proteins.
Description: Full‐length cDNA clones for respective proteins were obtained from IMAGE consortium (SourceBioScience, Nottingham, UK) and PCR amplified with forward and reverse primers (Table 1) containing overhangs with appropriate restriction sites and cloned into pGEX6 vectors (GE Healthcare, Uppsala, Sweden). Inserts were sequence verified, and the plasmids were transformed into BL21 Escherichia coli strain. Glutathione‐S‐transferase (GST) fusion proteins were purified from 1 L overnight culture after 2 h of induction with 1 mM IPTG. Cells were pelleted, resuspended in 1× PBS and sonicated 3 × 20 s on ice. EDTA and protease inhibitor cocktail were added to prevent proteolysis. The suspension was centrifuged for 30 min at 50 000 g to remove cell debris, and supernatant was loaded onto a 1 mL GSTrap™ 4B column (GE Healthcare). After column washing with 30 mL PBS, GST fusion proteins were eluted with 2.5 mL 10 mM glutathione in PBS. Eluate was passed through a PD‐10 column (GE Healthcare) to remove free glutathione. To prepare GST‐tag‐free proteins, we performed overnight cleavage at 4 °C with PreScission protease (GE Healthcare) followed by passage through a GSTrap column to remove free GST protein. Average yield from 1 L starting culture was 1–5 mg of purified proteins. Protein‐containing fractions were collected, checked with SDS/PAGE and kept at −20 °C.
Peptides were dissolved in HEPES‐KOH buffer pH 7.2 at concentration of 1 mg·mL^−1 and incubated with equimolar amounts of activated horseradish peroxidase (HRP) (Lightning‐link® HRP labeling kit cat. 701‐004, from Innova Biosciences) for 5 min. Reaction was quenched with 0.1 M Tris/HCl, pH 7.5 for 10 min and the products were passed through PD‐10 columns (GE Healthcare). Dot‐blot experiments were performed using GST‐tag‐free proteins applied to the nitrocellulose membrane. After blocking of membrane with 3% BSA in TBS‐T buffer for 1 h and subsequent wash with TBS‐T, HRP‐conjugated peptides (1 × 500 times dilution) were applied and incubated for 1 h. After subsequent washing (3 × 10 min, TBS‐T), membrane was dried and signals were quantified using a digital Fujifilm LAS3000 imager and LAS3000 software. In competition experiments, increasing concentrations of unlabeled peptides were co‐incubated with peptide–HRP conjugates.
Each peptide was separately coupled to HRP.
The target in data set [7] is T2, DNAAF2. Description: pull-down; GST–AIP and GST–FKBP51 as bait, purified full-length and truncated proteins as prey; bound proteins probed by western blot with their antibodies. The note with it: both partners purified. (In general: Immunoblotting shows a protein as a band on a membrane.)
In data set [8] the target is T3, NADSYN1. The data set is described as above. As to conditions: both partners purified.
Data set [9] concerns the target B3. The description is as above. The note with it: both partners purified.
Data set [10] has as its target B1. The data set is described as above. The note with it: both partners purified.

Regarding `CC(C)C[C@H](NC(=O)[C@H](CO)NC(=O)[C@H](CCC(N)=O)NC(=O)[C@H](C)NC(=O)[C@H](CCCNC(=N)N)NC(=O)[C@H](CCCNC(=N)N)NC(=O)[C@H](CCCNC(=N)N)NC(=O)[C@H](CCCNC(=N)N)NC(=O)[C@H](CCCNC(=N)N)NC(=O)[C@H](CCCNC(=N)N)NC(=O)[C@H](CCCNC(=N)N)NC(=O)[C@H](CCCNC(=N)N)NC(=O)[C@@H](N)CCCNC(=N)N)C(=O)N[C@@H](C)C(=O)N[C@@H](CCC(=O)O)C(=O)N[C@@H](CC(=O)O)C(=O)N[C@@H](CC(=O)O)C(=O)N[C@H](C(=O)N[C@@H](CCC(=O)O)C(=O)O)C(C)C` [R9–Tom20] (H-RRRRRRRRRAQSLAEDDVE-OH), the “fluorescein staining of HEK293 cells (peptide translocation into the cells)” value in [1] is recorded as “resulted in HEK293 cells staining”. Further, the “decrease of Hsp90–Tom70 interaction signal (PLA)” value in data set [2] is given as “failed to inhibit”. In addition, the “inhibition of Tom20–Tom70 interaction (mammalian two-hybrid, luciferase)” value in [3] was “sensitive”. Further, the “inhibition of Hsp90–Tom70 interaction (mammalian two-hybrid, luciferase)” value in data set [4] is reported as “inhibited only by addition of R9–Hsp90 peptide”.
With “H-DDDDDDDDDD-OH [poly‐D, reference compound]”, in data set [5], the “interaction with FKBP51” value is on record as “no interaction was observed”. Further, the “signal of HRP-conjugated peptide in dot-blot binding assay” value in [6] is listed as “did not produce any signal”.
Regarding B1, the binding result in [7] and in [8] was “binds” throughout.
For the molecule B2, the binding result in data set [9] and in data set [10] was “binds” each time.
Consider B3, for which the binding result in data set [7] and in [8] was “binds” each time.
